# Experimental data from US20230285372A1, “Pharmaceutical use of (E)-3-arylheterocyclylprop-2-enoic acid derivatives” (MEDCURIUS INC., priority 2020, published 2023).
# Structures can show the parent of a compound that is named as a salt. Where two headings read alike, the source gives them in different places.
# Tests used:
# Nrf2 = Nrf2 protein level in the nucleus of HT-22 cells, Western Blot; format: cell-based, mouse; conditions: 1.25 μM and 0.625 μM, 24 hours, vs control group
# Text: (§1) As a transcription factor, Nrf2 needs to enter the nucleus and combine with ARE sequence to play a role in transcriptional activation. Therefore, Nrf2 protein level in the nucleus is an important prerequisite for the activation of Nrf2 signaling pathway. NQO-1 and HO-1 are target genes regulated by Nrf2, and the increase of their protein levels is an important sign of activation of the Nrf2 signaling pathway.
# (§2) HT-22 cells in logarithmic growth phase were selected, the culture medium was discarded, the cells were digested with 0.25% Trypsin containing EDTA, and cell suspension was made. Cell density was adjusted to 50000/ml with DMEM/F12 medium (containing 10% FBS and 1% double antibody) and it was inoculated to 6-well plate, with 2000 μL/well, the number of cells per well was 100, 000, and the cells were cultured in a cell incubator at 37° C. in an atmosphere containing 5% CO2 for 24 hours. Then, the medium of each well was replaced with new 1980 μL DMEM/F12 medium. […] After 24 hours, the cells were collected, nuclear protein and cytoplasmic protein were extracted, and the level of Nrf2 in the nucleus and the expression of NQO-1 and HO-1 in cytoplasm were detected by Western Blot.
# NQO-1 = NQO-1 expression in HT-22 cytoplasm, Western Blot; format: cell-based, mouse; conditions: HT-22 cells, 1.25 μM and 0.625 μM, 24 hours, vs control group
# Text: as §1, §2
# HT-22 cells = test: Protective effect on HT-22 cell damage caused by L-glutamate monosodium salt; format: cell-based, mouse; conditions: Mus musculus, HT-22, 24 h, 15 mM L-glutamate, 24 hours
# Description: (§3) Well-proliferated HT-22 cells, derived from mouse hippocampal neuronal cells in logarithmic growth phase, were selected, and they were counted after being subjected to trypsin digestion and dispersion. The cell density was adjusted with DMEM/F12 medium (containing 10% FBS and 1% double antibody). The cells were then inoculated in a 96-well plate at a density of 2,000 cells per well, and cultured in a cell incubator at 37° C. in atmosphere containing 5% CO2 for 24 hours. For the control group and the L-glutamate monosodium salt group (model group), serum-free DMEM/F12 medium was added, and the other wells were added with tested compounds of different concentrations; except that the serum-free DMEM/F12 medium was added to the control group. L-glutamate monosodium salt solution at the final concentration of 15 mM was added to the remaining wells. After 24 hours, the cell viability was detected with a luminescent cell viability assay kit.
# as §3, with “group,” for “group.”
# as §3, with “2.000” for “2,000”, “group,” for “group.”
# HO-1 = HO-1 expression in HT-22 cytoplasm, Western Blot; format: cell-based, mouse; conditions: HT-22 cells, 1.25 μM and 0.625 μM, 24 hours, vs control group
# Text: as §1, §2
# p-synuclein = test: Phosphorylated α-synuclein (p-synuclein) level in midbrain, Western blot, MPTP mouse; format: in vivo; conditions: L-DOPA 10 mg/kg; p>0.05
# Text: (§4) The core pathological change of Parkinson's disease is the loss of dopaminergic neurons. Tyrosine hydroxylase (TH), the rate-limiting enzyme in dopamine synthesis, is the landmark protein of the dopaminergic neurons. Therefore, the decrease in its level indicates the loss of the dopaminergic neurons. A key protein for the occurrence and development of Parkinson's disease is α-synuclein protein, and the abnormal modification (hyperphosphorylation) of this protein can inhibit microtubule polymerization, enhance oxidative stress, and thus accelerate the death of the dopaminergic neurons.
# (§5) Male C57 mouse were screened for their motor function by a mouse rod-rotating test, and unqualified ones were excluded from the test. […] MPTP was injected subcutaneously every 4 days in the model group and the drug administration group with a dosage of 25 mg/kg for 40 consecutive days. Each group of I-5 was administered once a day at 8:00 am and 8:00 pm (by intragastric administration), twice in total. […] The intragastric volume was 0.1 ml/10 g body weight, and the behavior test was started 40 days later. […] The storage time of the prepared liquid medicine was not more than 24 hours.
# Tissues from all the animals were collected on the second day after the end of the behavioral experiment. Hearts from six animals in each group were perfused and fixed with paraformaldehyde for pathological analysis of paraffin sections. Brain tissue of the remaining animals was separated on ice, and brain areas (midbrain) related to Parkinson's disease were collected. After being frozen with liquid nitrogen, they were stored in a refrigerator at −80° C. for protein analysis. The level of tyrosine hydroxylase (TH), a marker protein of dopaminergic neurons, was detected by immumohistochemistry, and α-synuclein protein level and phosphorylation level of the protein were detected by Western blot.
# [1] = tested on: MPTP-induced Parkinson's disease mouse; test: Rotarod test, MPTP-induced Parkinson's disease mouse; format: in vivo; conditions: L-DOPA 10 mg/kg qd; vs model group, p<0.0001
# Description: as §5
# On the first day, the mouse acclimated to a rotating speed of 5 rpm for two times, each time for 5 minutes. On the second day, the rotarod turned at a speed of 10 rpm, the mouse acclimated to the speed for two times, each time for 5 minutes. On the third day, the rotarod turned at a speed of 15 rpm, the mouse acclimated to the speed for two times, each time for 3 minutes. On the fourth day, a behavioral test was started. The rotarod turned at a speed of 15 rpm for a period of 3 minutes. The time mouse spent on the rotarod (fall latency) was taken as an index for evaluation of their motor coordination. The test was repeated three times for each animal, with an interval of 30 minutes to eliminate the interference of exercise fatigue on the motion ability of animals.
# α-synuclein protein = α-synuclein protein level in midbrain, Western blot, MPTP mouse; format: in vivo; conditions: L-DOPA 10 mg/kg; p>0.05
# Text: as §4
# Male C57 mouse were screened for their motor function by a mouse rod-rotating test, and unqualified ones were excluded from the test. […] MPTP was injected subcutaneously every 4 days in the model group and the drug administration group with a dosage of 25 mg/kg for 40 consecutive days. Each group of I-5 was administered once a day at 8:00 am and 8:00 pm (by intragastric administration), twice in total. […]
# Tissues from all the animals were collected on the second day after the end of the behavioral experiment. […] The level of tyrosine hydroxylase (TH), a marker protein of dopaminergic neurons, was detected by immumohistochemistry, and α-synuclein protein level and phosphorylation level of the protein were detected by Western blot.
# [2] = tested on: MPTP-induced Parkinson's disease mouse; test: Pole-climbing test, MPTP-induced Parkinson's disease mouse; format: in vivo; conditions: L-DOPA 10 mg/kg qd intragastric, 40 days; vs model group, p<0.0001
# Description: as §5
# A climbing pole in the pole-climbing test was a rough wooden pole with a diameter of 2 cm and a length of 50 cm. The bottom of the wooden pole was located in the mouse home cage and was vertically oriented. When the mouse was placed on top of the wooden pole, it would naturally descend to the bottom of the wooden pole and reach the base of the pole. […] The mouse should have a pre-acclimation period of 2 days prior to the test, training five times a day. To the test day, the time required for the […] to reach the bottom (incubation period) was taken as an evaluation index to observe the effect of the tested compound on the motion ability of the mouse.
Structure (SMILES),protein level of Nrf2 in the nucleus (Nrf2),protein level of NQO-1 (NQO-1),"viability at 0.078 µM (HT-22 cells; Table 1, Conc 0.078 μm, L-Glu alone 27.73 (I-5 32.92), read-out: cell viability) [%]","viability at 0.156 µM (HT-22 cells; Table 1, Conc 0.156 μm, L-Glu alone 27.73 (I-5 32.92), read-out: cell viability) [%]","viability at 0.313 µM (HT-22 cells; Table 1, Conc 0.313 μm, L-Glu alone 27.73 (I-5 32.92), read-out: cell viability) [%]","viability at 0.625 µM (HT-22 cells; Table 1, Conc 0.625 μm, L-Glu alone 27.73 (I-5 32.92), read-out: cell viability) [%]","viability at 1.25 µM (HT-22 cells; Table 1, Conc 1.25 μm, L-Glu alone 27.73 (I-5 32.92), read-out: cell viability) [%]","viability at 2.5 µM (HT-22 cells; Table 1, Conc 2.5 μm, L-Glu alone 27.73 (I-5 32.92), read-out: cell viability) [%]","viability at 10 µM (HT-22 cells; Table 1, Conc 10 μm, L-Glu alone 27.73 (I-5 32.92), read-out: cell viability) [%]","viability at 0.078 µM (HT-22 cells; Table 2, Conc 0.078 μM, L-Glu alone 27.83, read-out: Visibility %) [%]","viability at 0.156 µM (HT-22 cells; Table 2, Conc 0.156 μM, L-Glu alone 27.83, read-out: Visibility %) [%]",protein level of HO-1 (HO-1),p-synuclein protein level in the midbrain (p-synuclein),fall latency in the Rotarod test [1],α-synuclein protein level in the midbrain (α-synuclein protein),latency of mouse reaching the base of the pole [2]
"COC(=O)/C=C/C(=O)OC [DMF, dimethyl fumarate, reference compound]",no statistical difference,no statistical difference,37.6,47.5,52.8,60,53.3,63.6,70.2,34.3,34.9,no statistical difference,,,,
"N[C@@H](Cc1ccc(O)c(O)c1)C(=O)O [L-DOPA, levodopa, reference compound]",,,,,,,,,,,,,no significant effect,significantly prolonged,no significant effect,significantly shorten the latency
